From ChEMBL document CHEMBL1136303, “4-(2-pyridyl)piperazine-1-carboxamides: potent vanilloid receptor 1 antagonists” (Bioorg Med Chem Lett, 2003) come the findings set out here.

Series [1] has as its target T1, Transient receptor potential cation channel subfamily V member 1 (Rattus norvegicus, UniProt O35433). Description: Vanilloid receptor subtype 1 antagonist activity based on its ability to block capsaicin-induced (CAP) activation of the rat VR1 channel in a HEK293 cell line. It is filed as functional.
The target of series [2] is T1, Transient receptor potential cation channel subfamily V member 1. Description: Vanilloid receptor subtype 1 antagonist activity based on its ability to block low pH-induced activation of the rat VR1 channel in a HEK293 cell line. It is filed as functional.
A short description of series [3]: Oral bioavailability in rat by po administration at a dose of 40 mg/kg. It is filed as ADME, organism-based. The settings on record: in vivo.
The nature of series [4]: Tmax in rat by po administration at a dose of 40 mg/kg. It is filed as ADME, organism-based. Further details: dose 40 mg/kg, route oral. The settings on record: in vivo.
Series [5] is described as follows: Cmax in rat by po administration at a dose of 40 mg/kg. It is filed as ADME, organism-based. Further details: dose 40 mg/kg, route oral. The settings on record: in vivo.
A short description of series [6]: Pharmacokinetic (PK) parameter Vz in rat. It is filed as ADME, organism-based. The settings on record: in vivo, read-out: Vz.
Series [7] is described as follows: Half life period in rat by iv administration at a dose of 3 mg/kg. It is filed as ADME, organism-based. Also noted: dose 3 mg/kg, route intravenous. The note with it: in vivo.
Series [8] is described as follows: Plasma clearance in rat by iv administration at a dose of 3 mg/kg. Further details: dose 3 mg/kg, route intravenous. It is filed as ADME, organism-based.

T1 sequence (O35433 whole entry): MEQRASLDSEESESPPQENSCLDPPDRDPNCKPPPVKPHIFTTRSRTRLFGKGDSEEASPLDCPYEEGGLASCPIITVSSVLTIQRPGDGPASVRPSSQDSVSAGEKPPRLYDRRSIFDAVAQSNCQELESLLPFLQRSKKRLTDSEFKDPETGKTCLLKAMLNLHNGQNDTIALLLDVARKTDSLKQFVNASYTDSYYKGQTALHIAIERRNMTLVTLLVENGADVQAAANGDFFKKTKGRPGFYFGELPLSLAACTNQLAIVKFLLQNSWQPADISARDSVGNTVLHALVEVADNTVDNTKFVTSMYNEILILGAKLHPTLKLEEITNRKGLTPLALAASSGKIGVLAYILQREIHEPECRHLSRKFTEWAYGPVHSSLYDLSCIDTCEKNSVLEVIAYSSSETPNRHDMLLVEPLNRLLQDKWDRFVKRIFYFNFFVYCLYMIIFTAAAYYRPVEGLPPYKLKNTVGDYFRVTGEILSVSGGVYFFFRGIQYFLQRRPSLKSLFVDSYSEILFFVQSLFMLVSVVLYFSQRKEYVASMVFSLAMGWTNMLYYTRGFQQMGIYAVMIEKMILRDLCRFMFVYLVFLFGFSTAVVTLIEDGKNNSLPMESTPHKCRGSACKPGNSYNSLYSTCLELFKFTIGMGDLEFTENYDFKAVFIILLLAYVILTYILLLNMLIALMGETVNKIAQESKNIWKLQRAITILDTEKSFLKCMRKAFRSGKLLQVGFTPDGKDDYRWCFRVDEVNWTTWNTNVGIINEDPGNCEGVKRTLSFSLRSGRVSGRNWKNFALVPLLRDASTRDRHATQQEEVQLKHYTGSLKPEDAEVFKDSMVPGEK

One may read the IC50 as the concentration at which inhibition is half-maximal. Regarding `CCc1ccc(NC(=O)N2CCN(c3ncccc3C(F)(F)F)CC2)cc1`, the IC50 in series [1] was found to be 111 nM; in series [2] it was 121 nM.

As for `CC(C)c1ccc(NC(=O)N2CCN(c3ncccc3C(F)F)CC2)cc1`, the IC50 was 27.7 nM in series [1] and 61.5 nM in series [2].

In the case of `Cc1cccnc1N1CCN(C(=O)Nc2ccc(C(C)C)cc2)CC1`, the IC50 in series [1] was found to be 25.3 nM; in series [2], 173 nM.

`CC(C)c1ccc(NC(=O)N2CCN(c3ncccc3C=O)CC2)cc1`: the IC50 in series [1] was 201 nM; in series [2] it was 1400 nM.

In the case of `O=C(Nc1ccc(C(F)(F)F)cc1)N1CCN(c2ncccc2Cl)CC1`, the figures for the IC50 in series [1] and in series [2] were 63.5 nM and 81.4 nM, respectively.

On to `CCc1cccnc1N1CCN(C(=O)Nc2ccc(C(C)C)cc2)CC1`, for which the IC50 is 230 nM in series [1] and 828 nM in series [2].

`CCC(C)c1ccc(NC(=O)N2CCN(c3ncccc3Cl)CC2)cc1` (stereo not drawn): the IC50 worked out at 17.4 nM in series [1] and 23.3 nM in series [2].

On to `O=C(Nc1ccc(C2CCCCC2)cc1)N1CCN(c2ncccc2Cl)CC1`, for which the IC50 in series [1] was 29.8 nM; in series [2], 91.7 nM.

On to `CC(C)c1ccc(NC(=O)N2CCN(c3ncccc3I)CC2)cc1`, for which the values for the concentration for half-maximal inhibition (IC50) in series [1] and in series [2] were 56.7 nM and 77.4 nM, respectively.

As to `CC(C)c1ccc(NC(=O)N2CCN(c3ncccc3[N+](=O)[O-])CC2)cc1`, the results for the IC50 in series [1] and in series [2] were 190 nM and 245 nM, respectively.

Turning to `O=C(Nc1ccc(OC(F)(F)F)cc1)N1CCN(c2ncccc2Cl)CC1`, the IC50 in series [1] is 93.2 nM; in series [2], 261 nM.

`O=C(Nc1ccc2ccccc2c1)N1CCN(c2ncccc2Cl)CC1`: the IC50 was 479 nM in series [1] and 278 nM in series [2].

Regarding `CCCCc1ccc(NC(=O)N2CCN(c3ncccc3Cl)CC2)cc1`, the figures for the IC50 in series [1] and in series [2] were 117 nM and 203 nM, respectively.

In turn, `CC(C)c1ccc(NC(=O)N2CCN(c3ncccc3Cl)CC2)cc1` registered an IC50 in series [1] of 11.5 nM.

Consider `CC(C)c1ccc(NC(=O)N2CCN(c3ncccc3C#N)CC2)cc1`, for which the values for the IC50 in series [1] and in series [2] were 287 nM and more than 25000 nM, respectively.

Consider `O=C(Nc1ccc(I)cc1)N1CCN(c2ncccc2Cl)CC1`, for which the IC50 in series [1] worked out at 285 nM; in series [2], 310 nM.

In the case of `CC(C)(C)[C@H]1CC[C@H](NC(=O)N2CCN(c3ncccc3Cl)CC2)CC1`, the values for the IC50 in series [1] and in series [2] were 3.9 nM and 17.2 nM, respectively.

In series [1], `Cc1ccc(NC(=O)N2CCN(c3ncccc3C(F)(F)F)CC2)cc1` yielded a concentration for half-maximal inhibition (IC50) of 556 nM.

For the molecule `CC(C)c1ccc(NC(=S)N2CCN(c3ncccc3C(F)(F)F)CC2)cc1`, the IC50 in series [1] was determined as 872 nM; in series [2], 575 nM.

Consider `CC(C)(C)c1ccc(NC(=S)N2CCN(c3ncccc3C(F)(F)F)CC2)cc1`, for which the IC50 came to 246 nM in series [1] and 441 nM in series [2].

Turning to `O=C(Nc1ccc(Br)cc1)N1CCN(c2ncccc2Cl)CC1`, the IC50 was found to be 491 nM in series [1] and 1010 nM in series [2].

For the molecule `O=C(Nc1ccc(Cl)cc1)N1CCN(c2ncccc2Cl)CC1`, the midpoint of inhibition in series [1], the IC50, lay at 655 nM.

Turning to `CC(C)(C)c1ccc(NC(=O)N2CCN(c3ncccc3C(F)(F)F)CC2)cc1`, the IC50 in series [1] came to 11.3 nM; in series [2] it was 57.7 nM.

Consider `CCCCc1ccc(NC(=O)N2CCN(c3ncccc3C(F)(F)F)CC2)cc1`, for which the IC50 in series [1] is 1360 nM; in series [2], 5180 nM.

For the molecule `CC(C)c1ccc(NC(=O)N2CCN(c3ncccc3Br)CC2)cc1`, the IC50 in series [1] worked out at 4.6 nM; in series [2], 27.1 nM.

With `CCc1ccc(NC(=O)N2CCN(c3ncccc3Cl)CC2)cc1`, the IC50 in series [1] stood at 107 nM; in series [2], 56.6 nM.

For `O=C(Nc1ccc([N+](=O)[O-])cc1)N1CCN(c2ncccc2Cl)CC1`, the IC50 in series [1] was 1110 nM; in series [2], more than 25000 nM.

Regarding `CC(C)c1ccc(NC(=O)N2CCN(c3ncccc3C(F)(F)F)CC2)cc1`, in series [1], the IC50 stood at 57.5 nM.

`O=C(Nc1ccc(Oc2ccccc2)cc1)N1CCN(c2ncccc2C(F)(F)F)CC1`: the IC50 in series [1] was 258 nM; in series [2] it was 916 nM.

Usually bioavailability stands for the share of a dose that reaches the circulation, judged against a reference dose that is usually intravenous. Lower therefore signals poor availability. What is called Tmax is the time at which the peak concentration occurs. Usually Cmax stands for the highest concentration seen after dosing. The half-life is the time in which the quantity being followed falls by half. A higher half-life goes with slow loss. In general, clearance refers to a measure of how efficiently the substance is removed, as volume per time. Lower therefore signals a low capacity for elimination. With `CC(C)(C)c1ccc(NC(=O)N2CCN(c3ncccc3Cl)CC2)cc1`, in series [3], the bioavailability is 15.1%. Also, the Tmax in series [4] was found to be 30 min. Further, in series [5], the Cmax came out at 1120 ng/mL. Also, in series [6], the Vd is 5.8 L/kg. In series [7], this molecule showed a half-life of 54 min. Further, the clearance in series [8] was 76.7 mL/min/kg.

With `CCCc1ccc(NC(=O)N2CCN(c3ncccc3Cl)CC2)cc1`, the IC50 in series [1] worked out at 41.6 nM; in series [2], 73 nM.

In turn, `Oc1cc2c(cc1O)CN(C(=S)NCCc1ccc(Cl)cc1)CCC2` [CAPSAZEPINE] returned an IC50 in series [1] of 58 nM.
